Laboratory results taken from patent US7713967B2, “Therapeutic substituted hydantoins, and related compounds” (Allergan, Inc., priority 2008, dated 2010).

Test system: lashes and adjacent hairs
Experiment: Clinical observation of lashes and adjacent hairs in glaucoma patients treated in one eye
Type: in vivo
Source text: In the course of treating patients having glaucoma, treatment may only be appropriate in one eye. […] The lash appearance on the lids of the treated eyes would have appeared quite attractive if it represented a bilateral phenomenon. As a result of its asymmetric nature, the long lashes on one side could be construed as disturbing from a cosmetic standpoint. A systemic examination was preformed as a result of the asymmetric phenomenon. It soon became apparent that this altered appearance was not an isolated finding. […] Definite differences could be identified to varying degrees in the lashes and adjacent hairs of all patients who were taking the drug on a unilateral basis for longer than 6 months.
The changes in the lashes were apparent on gross inspection in several patients once attention was focused on the issue. In those with light colored hair and lashes, the differences were only seen easily with the aid of the high magnification and lighting capabilities of the slit lamp biomicroscope. In the course of glaucoma follow-up examination, attention is generally immediately focused on the eye itself. As a result of the high power magnification needed only one eye is seen at a time and the eye is seen at a high enough power that the lashes are not in focus. […]

CCNC(=O)CCC/C=C\C[C@@H]1[C@@H](/C=C/[C@@H](O)CCc2ccccc2)[C@H](O)C[C@@H]1O [bimatoprost]
lash appearance in the treated eye versus the non-treated eye (glaucoma patient treated in one eye only): longer, thicker, and fuller
hair growth in treated versus control areas (multiple parameters of hair appearance, many subjects): stimulated
